The nature of experiment [1]: cytotoxicity in HPDE-C7 cells, cell-based, fluorescence, HTS (AID 430). The experiment is classed as functional. As to conditions: Homo sapiens.
Experiment [2] in a line: cytotoxicity in KRAS-transformed pancreatic duct cells, primary screen, cell-based, fluorescence, HTS (AID 431).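 Also: cell line used: HPDE-C7K.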 It is filed as functional. Conditions: Homo sapiens.
Experiment [3] in a line: cells.
The target in experiment [4] is Eukaryotic translation initiation factor 4E (Mus musculus, UniProt P63073). The experiment in a line: eIF4E–eIF4G protein interaction inhibitors, dose response, biochemical, TR-FRET (AID 855).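 Also: potency for disrupting eIF4E binding to eIF4GI seen as loss of FRET.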 The experiment is classed as functional. Background: In TR-FRET formats the signal depends on donor and acceptor labels being close together.
Chain of Eukaryotic translation initiation factor 4E (P63073 whole entry): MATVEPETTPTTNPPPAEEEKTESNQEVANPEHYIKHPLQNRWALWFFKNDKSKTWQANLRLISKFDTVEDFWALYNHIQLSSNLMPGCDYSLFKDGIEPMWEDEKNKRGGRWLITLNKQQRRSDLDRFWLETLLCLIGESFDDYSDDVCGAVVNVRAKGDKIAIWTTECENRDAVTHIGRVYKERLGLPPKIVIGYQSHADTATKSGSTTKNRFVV
Experiment [5] in a line: inhibitors of SNCA 5'UTR-driven reporter translation, confirmation, H4 neuroglioma cells, luminescence (AID 1988). The experiment is classed as functional, cell-based.
Experiment [6] can be described thus: luciferase reporter signal reduction – luminescence, H4-C neuroglioblastoma cells, dose response (AID 2458).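 Also: H4 neuroglioblastoma cells stably carrying a luciferase reporter gene fusion.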 It is filed as functional, cell-based. (A reporter such as luciferase makes a cellular process visible.)
A short description of experiment [7]: Luminescence Cell-Based Dose Response HTS to Identify Inhibitors of 5'UTR Stem-Loop Driven Prion Protein mRNA Translation in H4 Neuroglioblastoma Cells. [Related pubchem assays: 1827 (Project Summary), 1813 (Primary HTS)]. It is filed as functional.
Experiment [8] is described as follows: inhibitors of firefly luciferase expression or activity, dose response, H4 neuroglioma cells, luminescence (AID 1990). It is filed as functional, cell-based.
A short description of experiment [9]: inhibitors of SNCA 5'UTR-driven translation, confirmation, luminescence, H4 neuroglioblastoma cells, dose confirmation (AID 2454).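 Also: H4 neuroglioblastoma cells carrying an alpha-synuclein 5'UTR luciferase reporter; potency for inhibition of the luciferase signal.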 The experiment is classed as functional, cell-based.
Experiment [10] in a line: cells. It is filed as functional, cell-based.
Experiment [11] concerns the target T1, Mannose-6-phosphate isomerase (Homo sapiens, UniProt P34949).
T1 sequence (P34949 whole entry): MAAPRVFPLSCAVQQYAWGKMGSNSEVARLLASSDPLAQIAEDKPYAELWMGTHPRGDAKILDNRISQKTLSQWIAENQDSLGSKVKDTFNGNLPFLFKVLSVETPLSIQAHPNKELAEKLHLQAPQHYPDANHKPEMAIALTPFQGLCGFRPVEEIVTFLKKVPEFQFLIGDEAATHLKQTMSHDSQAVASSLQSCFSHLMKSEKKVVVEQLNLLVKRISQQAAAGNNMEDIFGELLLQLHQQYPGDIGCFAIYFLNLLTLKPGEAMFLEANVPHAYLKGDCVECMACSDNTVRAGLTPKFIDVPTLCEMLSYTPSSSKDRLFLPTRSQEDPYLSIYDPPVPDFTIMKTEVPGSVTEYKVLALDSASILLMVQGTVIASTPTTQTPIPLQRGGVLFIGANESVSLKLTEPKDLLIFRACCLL
Kind of experiment: human PMI inhibitors, high substrate, primary screen, biochemical, fluorescence intensity, high mannose 6-phosphate (AID 1220).

Experiment [12] can be described thus: cytotoxicity toward DRD oncogenic fibroblasts, dose response, cell-based, non-viral oncogenic, luminescence (AID 1934). It is filed as functional. As to conditions: Homo sapiens.
The subject of experiment [13] is BJ. The experiment in a line: cytotoxicity toward BJ-TERT-LT-ST fibroblasts, dose response, cell-based, RAS-independent, luminescence (AID 1935).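 Also: BJ fibroblasts immortalized with TERT plus LT and ST oncogenes.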 It is filed as functional. Conditions: Homo sapiens.
In experiment [14] the target is FAD-linked sulfhydryl oxidase ALR (Homo sapiens, UniProt P55789). The experiment in a line: inhibitors of human ALR sulfhydryl oxidase, dose response, biochemical, H2O2 detection, luminescence, cherry-pick (AID 493248).
Chain of FAD-linked sulfhydryl oxidase ALR (P55789 whole entry): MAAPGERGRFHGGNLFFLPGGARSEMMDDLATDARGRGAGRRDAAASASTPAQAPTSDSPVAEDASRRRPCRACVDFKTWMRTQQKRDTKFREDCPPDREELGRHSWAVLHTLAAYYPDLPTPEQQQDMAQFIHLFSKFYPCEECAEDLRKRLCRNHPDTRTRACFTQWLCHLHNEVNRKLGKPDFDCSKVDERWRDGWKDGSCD
The test system of experiment [15] is BJ. Kind of experiment: cells. The experiment is classed as functional, cell-based. Conditions: Homo sapiens.
For experiment [16], the system named is BJ. The experiment in a line: cytotoxicity toward BJ-TERT fibroblasts, dose response, cell-based, RAS-independent, luminescence (AID 1933). The experiment is classed as functional. Conditions: Homo sapiens.
Experiment [17] is described as follows: cytotoxicity toward NIH3T3 fibroblasts, dose response, counter-screen, cell-based, ATP luminescence, mouse fibroblasts (AID 2010).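 Also: cells exposed to compound for about 90 hours before reading.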 It is filed as functional. On the technique in general: A counterscreen serves to expose hits that act by an unwanted route or on another target.
Experiment [18] is described as follows: inhibitors of intracellular T. cruzi replication, confirmation, NIH3T3 host cells, beta-gal luminescence (AID 2044).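 Also: intracellular parasites grown in NIH/3T3 mouse fibroblasts as host cells; luminescent beta-galactosidase reporter signal from transgenic T. cruzi replicating inside host cells; inhibitors lower the luminescence signal.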 The experiment is classed as functional, cell-based.
Experiment [19] has as its target T2, Carboxy-terminal domain RNA polymerase II polypeptide A small phosphatase 1 (Homo sapiens, UniProt Q9GZU7).
T2 sequence (Q9GZU7 whole entry): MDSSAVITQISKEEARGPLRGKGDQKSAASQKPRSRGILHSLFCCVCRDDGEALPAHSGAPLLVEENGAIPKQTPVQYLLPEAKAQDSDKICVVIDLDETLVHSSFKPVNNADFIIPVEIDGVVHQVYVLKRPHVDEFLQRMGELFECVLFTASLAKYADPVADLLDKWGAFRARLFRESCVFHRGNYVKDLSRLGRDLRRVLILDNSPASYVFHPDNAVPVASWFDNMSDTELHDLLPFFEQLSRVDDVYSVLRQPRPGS
The experiment in a line: inhibitors of CTDSP1, concentration-response testing, biochemical assay, absorbance-based, actives from ultra-high-throughput screening (AID 540297). The experiment is classed as functional.

The next experiment deals with Streptococcus. The experiment in a line: Group A Streptococcus viability loss, dose response, counter-screen for streptokinase expression inhibitor project, luminescence, BacTiterGlo (AID 1915).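 Also: potency for reduction of bacterial viability or growth.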 It is filed as functional, organism-based.
Experiment [20] relates to Streptococcus sp. 'group A'. The experiment in a line: growth inhibition of control SK(-) GAS strain, dose response, counter-screen for streptokinase expression inhibitor project, luminescence, kanamycin, BacTiterGlo, confirmation (AID 1900). It is filed as functional, organism-based.
Experiment [21] in a line: HEp-2 cell cytotoxicity, dose response, cytotoxicity control for RSV inhibitor project, HTS (AID 2410). Conditions: human respiratory syncytial virus. It is filed as functional.
Experiment [22] concerns the target DNA dC->dU-editing enzyme APOBEC-3A (Homo sapiens, UniProt P31941). Kind of experiment: APOBEC3A DNA deaminase inhibitors, dose response, biochemical (AID 504722). It is filed as functional.
Experiment [23] addresses DNA dC->dU-editing enzyme APOBEC-3G (Homo sapiens, UniProt Q9HC16). The experiment in a line: Dose Response confirmation of small molecule APOBEC3G DNA Deaminase Inhibitors via a fluorescence-based single-stranded DNA deaminase assay. [Related pubchem assays (depositor defined):AID493012, AID493028]. The experiment is classed as functional.

Structures are written as SMILES. The source made the active and inactive calls. Rule as the data show it, for most assays here: actives have a measured EC50 and inactives only a lower limit. Some results are limits rather than exact numbers.

Chain of DNA dC->dU-editing enzyme APOBEC-3A (P31941 whole entry): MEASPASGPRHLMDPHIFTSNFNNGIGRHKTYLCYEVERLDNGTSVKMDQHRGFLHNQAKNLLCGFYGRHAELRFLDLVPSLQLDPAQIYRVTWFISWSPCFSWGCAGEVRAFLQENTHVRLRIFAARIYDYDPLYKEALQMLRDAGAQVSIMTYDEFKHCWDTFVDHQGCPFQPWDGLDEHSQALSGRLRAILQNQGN
Chain of DNA dC->dU-editing enzyme APOBEC-3G (Q9HC16 whole entry): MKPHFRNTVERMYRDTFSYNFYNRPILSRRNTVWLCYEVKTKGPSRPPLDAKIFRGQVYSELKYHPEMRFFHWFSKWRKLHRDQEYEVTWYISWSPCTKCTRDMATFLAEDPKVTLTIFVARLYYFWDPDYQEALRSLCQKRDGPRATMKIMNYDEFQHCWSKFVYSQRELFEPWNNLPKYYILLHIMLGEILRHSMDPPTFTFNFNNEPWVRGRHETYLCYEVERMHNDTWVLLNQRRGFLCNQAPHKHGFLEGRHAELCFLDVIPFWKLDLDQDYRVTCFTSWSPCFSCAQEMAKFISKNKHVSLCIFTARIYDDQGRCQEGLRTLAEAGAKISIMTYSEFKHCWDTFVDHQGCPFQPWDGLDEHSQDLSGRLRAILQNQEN

For orientation: EC50 means the concentration needed to bring the measured effect to its halfway point. Turning to `CCCc1cc(-c2[nH]ncc2-c2ccc3c(c2)OCCCO3)c(O)cc1O`, the EC50 in [1] is 8.22 µM (active); in experiment [2], 8.05 µM (active).

By IC50 is commonly meant the concentration that gives 50% inhibition. In the case of `COCCCNC(=O)c1ccc(Cn2c(=O)c3ccccc3n(Cc3ccc(C)cc3)c2=O)cc1`, the IC50 in “cells [3]” is 2.98 µM (active).

`CCCc1ccc(Oc2c(C)n[nH]c2-c2ccc(O)c(C)c2O)cc1`: the EC50 in experiment [1] is 4.88 µM (active); in [2], 4.42 µM (active).

Regarding `CC(=O)C1=C(c2ccccc2)OC(N)=C(C#N)C1c1ccc(O)cc1` (centres undefined), the IC50 in [4] is > 64 µM (inactive).

With `COc1ccccc1/C=C/C(=O)NCC(=O)N/N=C(/C)c1ccc(Cl)cc1`, the IC50 in the experiment “cells [3]” was 25.4 µM (active).

`c1ccc(-c2noc(-c3ccc4ccccc4c3)n2)cc1`: the EC50 is < 0.1 µM (active) in [5]; 0.974 µM (active) in experiment [6]; 8.76 µM (active) in experiment [7]; < 0.1 µM (active) in [8]; 0.636 µM (active) in experiment [9]; 0.694 µM (inconclusive) in “cells [10]”.

Turning to `CCN1CCN(C(=O)C(C)Nc2cc(Cl)c(OC)cc2OC)CC1` (centres undefined), the IC50 in [11] is > 50 µM (not active).

A word on the AC50: it is the concentration at which the activity in the assay is half-maximal. As to `COc1ccc(OC)c(Nc2c3c(nc4ccccc24)CCC3)c1`, the EC50 is 12.4 µM (active) in [12]; < 0.1 µM (active) in [5]; 0.716 µM (active) in [6]; 0.284 µM (inconclusive) in the experiment with BJ [13]; 0.355 µM (active) in experiment [7]; 15 µM (inconclusive) in the experiment with BJ [15]. In addition, the EC50 in the experiment on BJ [16] is 0.463 µM (active); in experiment [8], 3.29 µM (active); in experiment [9], 1.18 µM (active); in “cells [10]”, 0.804 µM (active); in experiment [17] it was 0.432 µM (active); in experiment [18], 3.15 µM (active). The AC50 in [14] was 16.2 µM (active).

Turning to `O=C(NCc1ccc(F)cc1)c1c2c(nc3ccccc13)CCC2`, the values for the IC50 in experiment [4] and in experiment [19] were 50 µM (inactive) and 5.44 µM (active), respectively.

Take `C=CCN1C(=O)NC(=O)/C(=C(/CC)Nc2ccc(N(CC)CC)cc2)C1=O`: the EC50 was > 20 µM (not active) in experiment [1], 2.03 µM (active) with Streptococcus, > 20 µM (not active) in experiment [2] and 1.23 µM (active) in experiment [20].

The CC50 is the concentration at which the toxic effect on the cells reaches its halfway point. On to `Cc1cc(C)c(S(=O)(=O)N2CCCCC2CCNC(=O)C(=O)NC2CC2)c(C)c1` (centres undefined), for which the CC50 in [21] was 20.3 µM (active). For the same molecule, the IC50 in the experiment “cells [3]” was 4.37 µM (active).

Regarding `O=C(N/N=C/c1ccc(N2CCOCC2)o1)c1cccc([N+](=O)[O-])c1`, the IC50 in experiment [11] is recorded as > 50 µM (not active).

As for `COc1ccc(OCc2n[nH]c(=S)n2N)cc1`, the IC50 in experiment [22] was > 100 µM (inactive); in experiment [11] it was 21.4 µM (active); in [23], 7.1 µM (active).

For the molecule `O=C(CNc1cccc(C(F)(F)F)c1)N/N=C/c1cn(-c2ccccc2)nc1-c1ccccc1`, the CC50 in experiment [21] is > 50 µM (active). Besides, the IC50 in the experiment “cells [3]” is 19.8 µM (active).

In the case of `COc1ccc(N(CC(=O)NC2CCCCC2)C(=O)c2ccc(C)s2)c(OC)c1`, the half-maximal cytotoxic concentration (CC50) in [21] is 43.8 µM (active). The IC50 in the experiment “cells [3]” is 10.9 µM (active).

For `CC1CCc2nn(CC(=O)N3CCCCCC3)cc2C1` (centres undefined), the IC50 in experiment [4] was > 64 µM (inactive).
